Among the data in US12180226B2, “Spirotricycle RIPK1 inhibitors and methods of uses thereof” (Merck Sharp & Dohme LLC, priority 2021, dated 2024) are EC50 values, retold here.

This experiment addresses RIPK1 (recombinant GST-RIPK1 kinase domain, residues 1-327) (Homo sapiens (Human), UniProt Q13546). Briefly: RIPK1-ADP-Glo Enzymatic Assay. Format: biochemical. The following applies: ADP-Glo; 25 nM GST-RIPK1, 300 μM ATP; assay lower limit ~25 nM; read-out: RIPK1 V0 Ec50. Put shortly: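 ADP-Glo luminescence read after 150 min kinase reaction (300 μM ATP, 3 μM dephosphorylated MBP) using 25 nM Sf21-made GST-kinase domain (1-327), preincubated 30 min with compound. HEPES pH 7.3, 1% DMSO; ten-point 1:3 series from 100000 nM, EC50 via four-parameter sigmoidal regression.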

Where a name gives a salt, the structure may show the parent alone.

RIPK1 (recombinant GST-RIPK1 kinase domain, residues 1-327), sequence (Q13546 1-327): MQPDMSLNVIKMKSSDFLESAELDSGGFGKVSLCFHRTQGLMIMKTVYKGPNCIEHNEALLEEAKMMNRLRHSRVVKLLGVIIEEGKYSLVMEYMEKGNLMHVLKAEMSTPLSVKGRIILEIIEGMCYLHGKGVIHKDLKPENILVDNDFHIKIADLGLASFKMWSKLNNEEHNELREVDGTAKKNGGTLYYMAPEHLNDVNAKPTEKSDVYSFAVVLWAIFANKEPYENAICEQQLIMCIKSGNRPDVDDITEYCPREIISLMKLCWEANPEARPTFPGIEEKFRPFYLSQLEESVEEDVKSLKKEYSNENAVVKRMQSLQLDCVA

For the compound `Cc1occc1C(=O)N1CCC2(CC1)O[C@@H]1CC[C@@H](c3cc(F)cc(F)c3)N1C2=O` [Example 5.37, (5′S,7a′R)-5′-(3,5-difluoro-phenyl)-1-(2-methylfuran-3-carbonyl)tetrahydro-3′H-spiro[piperidine-4,2′-pyrrolo[2,1-b]oxazol]-3′-one], the EC50 (as a rule, the concentration giving half of the maximal effect) is under 25 nM.
With `CC1CN(c2cc(C#N)ncn2)CCC12O[C@@H]1CC[C@@H](c3ccccc3)N1C2=O` (stereo partly drawn) [Example 4.234, 6-[(4R,5′S,7a′R)-3-methyl-3′-oxo-5′-phenyltetrahydro-1H,3′H-spiro[piperidine-4,2′-pyrrolo[2,1-b] [1,3]oxazol]-1-yl]pyrimidine-4-carbonitrile] the figure was 56.5 nM; with `O=C(c1cc(F)ccc1F)N1CCC2(O[C@@H]3CC[C@@H](c4ccccc4)N3C2=O)C(F)C1` (stereo partly drawn) [Example 6.111, (5′S,7a′R)-1-(2,5-difluorobenzene-1-carbonyl)-3-fluoro-5′-phenyltetrahydro-3′H-spiro[piperidine-4,2′-pyrrolo[2,1-b][1,3]-oxazol]-3′-one], under 25 nM; with `Cc1cccc(C(=O)N2CCC3(CC2)O[C@@H]2CC[C@@H](c4ccccc4)N2C3=O)c1F` [Example 6.157, (5′S,7a′R)-1-(2-fluoro-3-methylbenzene-1-carbonyl)-5′-phenyl-tetrahydro-3′H-spiro [piperidine-4,2′-pyrrolo[2,1-b][1,3]-oxazol]-3′-one], under 25 nM.
Consider `O=C(c1cnn2ccccc12)N1CCC2(CC1)O[C@@H]1CC[C@@H](c3cc(F)cc(F)c3)N1C2=O` [Example 5.72, (5′S,7a′R)-5′-(3,5-difluoro-phenyl)-1-(pyrazolo[1,5-a]-pyridine-3-carbonyl)tetra-hydro-3′H-spiro[piperidine-4,2′-pyrrolo[2,1-b]oxazol]-3′-one], for which the concentration for a half-maximal effect (EC50) worked out at 30.8 nM.
As to `Cc1ccc(F)c(C(=O)N2CCC3(CC2)O[C@@H]2CC[C@@H](c4cc(F)cc(F)c4)N2C3=O)n1` [Example 6.104, (5′S,7a′R)-5′-(3,5-difluorophenyl)-1-(3-fluoro-6-methylpyri-dine-2-carbonyl)tetra-hydro-3′H-spiro[piperi-dine-4,2′-pyrrolo[2,1-b][1,3]oxazol]-3′-one], the EC50 is 32.2 nM.
With `N#Cc1ccccc1C(=O)N1CCC2(CC1)O[C@@H]1CC[C@@H](c3cccc(F)c3)N1C2=O` [Example 6.129, 2-[(5′S,7a′R)-5′-(3-fluorophenyl)-3′-oxotetrahydro-1H,3′H-spiro[piperidine-4,2′-pyrrolo[2,1-b][1,3]-oxazole]-1-carbonyl] benzonitrile] the figure was 188 nM.
For `N#Cc1cccc(S(=O)(=O)N2CCC3(CC2)O[C@@H]2CC[C@@H](c4cc(F)cc(F)c4)N2C3=O)c1` [Example 8.3, 3-{[(5′S,7a′R)-5′-(3,5-difluorophenyl)-3′-oxotetrahydro-1H,3′H-spiro[piperidine-4,2′-pyrrolo[2,1-b][1,3]oxazol]-1-yl]sulfonyl]benzonitrile], the concentration for a half-maximal effect (EC50) is 213 nM.
`O=C1N2[C@@H](CC[C@H]2c2cc(F)cc(F)c2)OC12CCN(c1ccc(F)c3ccnn13)CC2` [Example 16.1, (5′S,7a′R)-5′-(3,5-difluorophenyl)-1-(4-fluoropyrazolo[1,5-a]pyridin-7-yl)tetrahydro-3′H-spiro[piperidine-4,2′-pyrrolo[2,1-b]oxazol]-3′-one, TFA salt]: the EC50 was under 25 nM.
With `Cc1ccc(C(=O)N2CCC3(CC2)O[C@@H]2CC[C@@H](c4ccccc4)N2C3=O)c(F)c1` [Example 6.152, (5′S,7a′R)-1-(2-fluoro-4-methylbenzene-1-carbonyl)-5′-phenyl-tetrahydro-3′H-spiro [piperidine-4,2′-pyrrolo[2,1-b][1,3]oxazol]-3′-one] the figure was under 25 nM; with `Cc1ncc([C@@H]2CC[C@H]3OC4(CCN(c5ccnc6c(F)cnn56)CC4F)C(=O)N32)cc1F` (stereo partly drawn) [Example 4.130, (5′S,7a′R)-3-fluoro-5′-(5-fluoro-6-methylpyridin-3-yl)-1-(3-fluoropyrazolo[1,5-a]pyrimidin-7-yl)tetrahydro-3′H-spiro[piperidine-4,2′-pyrrolo[2,1-b] [1,3]oxazol]-3′-one], under 25 nM.
With `CC1CN(c2cccc3ncnn23)CCC12O[C@@H]1CC[C@@H](c3ccccc3)N1C2=O` (stereo partly drawn) [Example 4.245, (4R,5′S,7a′R)-3-methyl-5′-phenyl-1-([1,2,4]triazolo[1,5-a]pyridin-5-yl)tetrahydro-3′H-spiro[piperidine-4,2′-pyrrolo[2,1-b] [1,3]oxazol]-3′-one] the figure was under 25 nM.
With `N#Cc1cnc(N2CCC3(CC2)O[C@@H]2CC[C@@H](c4ccccc4)N2C3=O)cc1OC(F)F` [Example 4.206, 4-(difluoromethoxy)-6-[(5′S,7a′R)-3′-oxo-5′-phenyltetrahydro-1H,3′H-spiro[piperidine-4,2′-pyrrolo[2,1-b] [1,3]oxazol]-1-yl]pyridine-3-carbonitrile] the figure was under 25 nM; with `Cc1oncc1C(=O)N1CCC2(CC1)O[C@@H]1CC[C@@H](c3cc(F)cc(F)c3)N1C2=O` [Example 6.60, (5′S,7a′R)-5′-(3,5-difluorophenyl)-1-(5-methyl-1,2-oxazole-4-carbonyl)tetrahydro-3′H-spiro[piperidine-4,2′-pyrrolo[2,1-b] [1,3]oxazol]-3′-one], 95 nM.
In the case of `O=C1N2[C@@H](CO[C@H]2c2cc(F)cc(F)c2)CC12CCN(c1ccnc3ccnn13)CC2` (stereo in doubt) [Example 4.147, 3′-(3,5-difluorophenyl)-1-(pyrazolo[1,5-a]pyrimidin-7-yl)dihydro-1′H,3′H,5′H-spiro[piperidine-4,6′-pyrrolo[1,2-c] [1,3]oxazol]-5′-one], the EC50 is under 25 nM.
With `O=C(c1cc(C2CC2)on1)N1CCC2(CC1)O[C@@H]1CC[C@@H](c3cc(F)cc(F)c3)N1C2=O` [Example 6.25, (5′S,7a′R)-1-(5-cyclo-propyl-1,2-oxazole-3-carbonyl)-5′-(3,5-difluorophenyl)tetra-hydro-3′H-spiro[piperi-dine-4,2′-pyrrolo[2,1-b][1,3]oxazol]-3′-one] the figure was 82.4 nM; with `O=C(c1nc2ncccc2s1)N1CCC2(CC1)O[C@@H]1CC[C@@H](c3cc(F)cc(F)c3)N1C2=O` [Example 6.26], 321 nM; with `CC(F)(F)c1ccnc(N2CCC3(CC2)O[C@@H]2CC[C@@H](c4ccccc4)N2C3=O)c1` [Example 4.262, (5′S,7a′R)-1-[4-(1,1-difluoroethyl)pyridin-2-yl]-5′-phenyltetrahydro-3′H-spiro[piperidine-4,2′-pyrrolo[2,1-b] [1,3]oxazol]-3′-one], 256 nM.
With `O=C(c1ccccc1F)N1CCC2(CC1)O[C@@H]1CC[C@@H](c3cc(F)cc(F)c3)N1C2=O` [Example 1.9, (5′S,7a′R)-5′-(3,5-difluorophenyl)-1-(2-fluorobenzene-1-carbonyl)tetrahydro-3′H-spiro[piperidine-4,2′-pyrrolo[2,1-b] [1,3]oxazol]-3′-one] the figure was under 25 nM; with `O=C(c1ccccc1)N1CCC2(CC1)O[C@@H]1CC[C@@H](c3cc(F)ccc3F)N1C2=O` [Example 7.2, (5′S,7a′R)-1-(benzenecarbonyl)-5′-(2,5-difluorophenyl)tetrahydro-3′H-spiro[piperidine-4,2′-pyrrolo[2,1-b][1,3]oxazol]-3′-one], under 25 nM; with `CC1CN(c2cccc3ncnn23)CCC12O[C@@H]1CC[C@@H](c3ccccc3)N1C2=O` (stereo partly drawn) [Example 4.243, (4R,5′S,7a′R)-3-methyl-5′-phenyl-1-([1,2,4]triazolo[1,5-a]pyridin-5-yl)tetrahydro-3′H-spiro[piperidine-4,2′-pyrrolo[2,1-b] [1,3]oxazol]-3′-one], 26.3 nM.
With `O=C1N2[C@@H](CC[C@H]2c2cccc(F)c2)OC12CCN(c1ccnc3c(F)cnn13)CC2` [Example 4.129, (5′S,7a′R)-5′-(3-fluorophenyl)-1-(3-fluoropyrazolo[1,5-a]pyrimidin-7-yl)tetrahydro-3′H-spiro[piperidine-4,2′-pyrrolo[2,1-b] [1,3]oxazol]-3′-one] the figure was under 25 nM; with `N#Cc1ccc(N2CCC3(CC2)O[C@@H]2CC[C@@H](c4ccccc4)N2C3=O)n2ncc(Br)c12` [Example 4.183, 3-bromo-7-[(5′S,7a′R)-3′-oxo-5′-phenyltetrahydro-1H,3′H-spiro[piperidine-4,2′-pyrrolo[2,1-b] [1,3]oxazol]-1-yl]pyrazolo[1,5-a] pyridine-4-carbonitrile], under 25 nM.
In the case of `O=C1N2[C@@H](CC[C@H]2c2cc(F)cc(F)c2)OC12CCN(c1ccc(Br)c3ccnn13)CC2` [Example 13.6, (5′S,7a′R)-1-(4-bromopyrazolo[1,5-a]pyridin-7-yl)-5′-(3,5-difluorophenyl)tetrahydro-3′H-spiro[piperidine-4,2′-pyrrolo[2,1-b]oxazol]-3′-one, TFA salt], the EC50 is under 25 nM.
With `CC1CN(C(=O)c2ccccc2)CCC12O[C@@H]1CC[C@@H](c3cc(F)cc(F)c3)N1C2=O` (single isomer, unassigned) [Example 2.4, (3[R or S],4[R or S], 5′S,7a′R)-1-benzoyl-5′-(3,5-difluorophenyl)-3-methyltetrahydro-3′H-spiro[piperidine-4,2′-pyrrolo[2,1-b]oxazol]-3′-one] the figure was under 25 nM.
With `O=C1N2[C@@H](CC[C@H]2c2ccccc2)OC12CCN(c1ccc(-n3ccnc3)nn1)CC2` [Example 11.18, (5′S,7a′R)-1-[6-(1H-imidazol-1-yl)pyridazin-3-yl]-5′-phenyltetrahydro-3′H-spiro[piperidine-4,2′-pyrrolo[2,1-b][1,3]oxazol]-3′-one] the figure was 93 nM; with `CCOc1cccc(C(=O)N2CCC3(CC2)O[C@@H]2CC[C@@H](c4cccc(F)c4)N2C3=O)c1` [Example 6.121, (5′S,7a′R)-1-(3-ethoxy-benzene-1-carbonyl)-5′-(3-fluorophenyl)-tetrahydro-3′H-spiro [piperidine-4,2′-pyrrolo[2,1-b][1,3]oxazol]-3′-one], under 25 nM.
